Test [1] addresses IKKε (Homo sapiens (Human), UniProt Q14164). Nature of the test: IKKε TR-FRET enzymatic assay. The format is biochemical. The settings on record: read-out: IKKe IC50. (In general: In TR-FRET formats the signal depends on donor and acceptor labels being close together.)
Test [2] addresses TBK1 (Homo sapiens (Human), UniProt Q9UHD2). Nature of the test: TBK1 TR-FRET enzymatic assay.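 Also: phosphorylation of a biotinylated Ser/Thr peptide by purified full-length recombinant TBK1, read by TR-FRET after 240 min at 25 °C, IC50 is the geometric mean of at least four runs.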
The target in test [3] is hJAK2 (Homo sapiens (Human), UniProt O60674). Nature of the test: hJAK2 LANCE TR-FRET enzymatic assay. The settings on record: read-out: JAK2 IC50. The test is classed as biochemical.
[4] abbreviates: TR-FRET, 2×Km ATP, geometric mean of minimum four determinations.

Where two headings read alike, the source gives them in different places.

Consider 21 compounds from US10040781B2, “Tank-binding kinase inhibitor compounds” (Gilead Sciences, Inc., priority 2014, dated 2018).

TBK1, sequence (Q9UHD2 whole entry): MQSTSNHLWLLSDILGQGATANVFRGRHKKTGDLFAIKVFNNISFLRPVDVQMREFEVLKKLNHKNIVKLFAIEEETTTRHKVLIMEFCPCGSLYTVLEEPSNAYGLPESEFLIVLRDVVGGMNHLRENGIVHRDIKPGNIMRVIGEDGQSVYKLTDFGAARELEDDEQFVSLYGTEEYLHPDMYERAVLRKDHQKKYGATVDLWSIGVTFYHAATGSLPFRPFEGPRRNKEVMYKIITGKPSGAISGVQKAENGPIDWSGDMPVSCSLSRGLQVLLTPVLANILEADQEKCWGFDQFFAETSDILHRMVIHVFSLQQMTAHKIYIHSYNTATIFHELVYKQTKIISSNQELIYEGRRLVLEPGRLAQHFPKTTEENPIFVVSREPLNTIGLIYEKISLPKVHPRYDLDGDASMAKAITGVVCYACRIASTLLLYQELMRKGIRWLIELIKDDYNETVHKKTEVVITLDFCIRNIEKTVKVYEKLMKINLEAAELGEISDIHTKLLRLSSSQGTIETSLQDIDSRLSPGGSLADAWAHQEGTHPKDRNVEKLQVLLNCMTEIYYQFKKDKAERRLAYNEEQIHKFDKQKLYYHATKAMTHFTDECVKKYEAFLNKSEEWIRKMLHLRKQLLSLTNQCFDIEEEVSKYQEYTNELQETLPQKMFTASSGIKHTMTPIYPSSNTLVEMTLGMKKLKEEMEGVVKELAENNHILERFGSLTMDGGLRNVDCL
IKKε, sequence (Q14164 whole entry): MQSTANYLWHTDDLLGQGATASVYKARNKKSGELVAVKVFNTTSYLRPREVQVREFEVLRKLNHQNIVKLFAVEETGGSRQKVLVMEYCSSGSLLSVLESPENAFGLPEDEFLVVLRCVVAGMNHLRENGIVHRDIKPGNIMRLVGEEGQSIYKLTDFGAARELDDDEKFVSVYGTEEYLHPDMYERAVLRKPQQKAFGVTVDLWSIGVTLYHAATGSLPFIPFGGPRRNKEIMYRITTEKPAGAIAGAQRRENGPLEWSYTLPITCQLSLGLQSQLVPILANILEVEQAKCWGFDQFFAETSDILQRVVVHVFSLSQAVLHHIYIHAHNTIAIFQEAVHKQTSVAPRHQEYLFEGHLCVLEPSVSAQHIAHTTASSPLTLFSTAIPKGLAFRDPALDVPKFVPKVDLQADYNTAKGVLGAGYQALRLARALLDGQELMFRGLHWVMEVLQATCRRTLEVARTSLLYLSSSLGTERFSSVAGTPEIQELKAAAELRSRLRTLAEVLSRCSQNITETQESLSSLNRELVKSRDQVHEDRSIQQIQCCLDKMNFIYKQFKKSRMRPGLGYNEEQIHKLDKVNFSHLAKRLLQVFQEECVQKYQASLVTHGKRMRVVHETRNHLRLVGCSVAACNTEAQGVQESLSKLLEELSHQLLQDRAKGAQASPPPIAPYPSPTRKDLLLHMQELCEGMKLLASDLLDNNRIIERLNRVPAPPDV
hJAK2, sequence (O60674 whole entry): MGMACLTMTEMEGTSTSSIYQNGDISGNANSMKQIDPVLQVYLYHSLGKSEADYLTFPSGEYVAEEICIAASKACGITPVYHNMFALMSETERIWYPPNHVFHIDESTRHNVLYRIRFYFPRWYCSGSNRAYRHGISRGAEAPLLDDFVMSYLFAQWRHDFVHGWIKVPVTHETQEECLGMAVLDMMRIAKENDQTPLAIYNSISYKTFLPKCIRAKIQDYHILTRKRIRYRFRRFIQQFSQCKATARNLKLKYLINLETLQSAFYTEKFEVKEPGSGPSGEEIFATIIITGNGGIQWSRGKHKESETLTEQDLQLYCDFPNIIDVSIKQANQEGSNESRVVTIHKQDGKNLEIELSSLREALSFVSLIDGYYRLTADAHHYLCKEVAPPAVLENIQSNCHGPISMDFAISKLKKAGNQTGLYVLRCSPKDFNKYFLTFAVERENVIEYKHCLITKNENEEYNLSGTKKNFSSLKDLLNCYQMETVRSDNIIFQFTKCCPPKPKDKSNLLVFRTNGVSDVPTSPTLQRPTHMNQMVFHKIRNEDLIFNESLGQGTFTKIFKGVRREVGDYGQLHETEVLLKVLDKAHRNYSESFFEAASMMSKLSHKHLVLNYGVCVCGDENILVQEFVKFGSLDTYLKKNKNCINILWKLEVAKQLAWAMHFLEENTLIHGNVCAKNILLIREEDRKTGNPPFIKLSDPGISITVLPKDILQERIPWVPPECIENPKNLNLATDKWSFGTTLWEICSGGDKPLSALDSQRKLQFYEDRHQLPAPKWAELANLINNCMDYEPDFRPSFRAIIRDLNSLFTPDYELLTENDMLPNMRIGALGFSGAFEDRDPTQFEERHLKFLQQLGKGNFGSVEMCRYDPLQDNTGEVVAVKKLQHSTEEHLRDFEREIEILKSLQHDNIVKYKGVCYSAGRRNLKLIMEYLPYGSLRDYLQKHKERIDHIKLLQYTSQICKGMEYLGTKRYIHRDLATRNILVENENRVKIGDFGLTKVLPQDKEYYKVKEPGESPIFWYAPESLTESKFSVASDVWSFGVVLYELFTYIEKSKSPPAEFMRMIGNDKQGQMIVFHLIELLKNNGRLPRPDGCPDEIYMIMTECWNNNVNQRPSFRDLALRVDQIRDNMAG

A word on the IC50: it is the concentration needed to halve the response being measured. As to `C[C@H](O)C(=O)N1CCCC(Oc2ccc(-c3ncnc(Nc4ccc(N5CCN(C6COC6)CC5)cc4)n3)cc2C#N)CC1` (stereo partly drawn) [Example 359, 2-((1-((S)-2-hydroxypropanoyl)azepan-4-yl)oxy)-5-(4-((4-(4-(oxetan-3-yl)piperazin-1-yl)phenyl)amino)-1,3,5-triazin-2-yl)benzonitrile], the values for the IC50 in test [1], in test [2] and in test [3] were 37 nM, 17 nM and 995 nM, respectively.
Turning to `CC(C)(C)n1cc(Nc2ncnc(-c3ccc(O[C@H]4CCN(C(=O)CC#N)C[C@H]4F)c(C#N)c3)n2)cn1` [Example 459, 5-(4-((1-(tert-butyl)-1H-pyrazol-4-yl)amino)-1,3,5-triazin-2-yl)-2-(((3R,4S)-1-(2-cyanoacetyl)-3-fluoropiperidin-4-yl)oxy)benzonitrile], the IC50 turned out to be 22 nM in test [1] (setting [4]), 11 nM in test [2] and 108 nM in test [3].
In the case of `CC(C)(O)c1ccc(Nc2ncnc(-c3ccc(O[C@H]4CCN(C(=O)CO)C[C@H]4F)c(C#N)c3)n2)cn1` [Example 388, 2-(((3R,4S)-3-fluoro-1-(2-hydroxyacetyl)piperidin-4-yl)oxy)-5-(4-((6-(2-hydroxypropan-2-yl)pyridin-3-yl)amino)-1,3,5-triazin-2-yl)benzonitrile], the IC50 in test [1] is 4 nM; in test [2], 6 nM; in test [3], not below 1000 nM.
Turning to `N#Cc1cc(-c2ncnc(Nc3ccc(N4CCN(C5COC5)CC4)cc3)n2)ccc1OCCC1CNC(=O)C1` (stereo not drawn) [Example 597, 5-(4-((4-(4-(oxetan-3-yl)piperazin-1-yl)phenyl)amino)-1,3,5-triazin-2-yl)-2-(2-(5-oxopyrrolidin-3-yl)ethoxy)benzonitrile], the IC50 was 131 nM in test [1] (setting [4]), 95 nM in test [2] and not below 1000 nM in test [3].
In the case of `CN1CC[C@H](Oc2ccc(Nc3ncnc(-c4ccc(O[C@H]5CCN(C(=O)[C@@H](O)CO)C[C@H]5F)c(C#N)c4)n3)cc2)[C@H](F)C1` [Example 398, 2-(((3R,4S)-1-((S)-2,3-dihydroxypropanoyl)-3-fluoropiperidin-4-yl)oxy)-5-(4-((4-(((3R,4S)-3-fluoro-1-methylpiperidin-4-yl)oxy)phenyl)amino)-1,3,5-triazin-2-yl)benzonitrile], the IC50 in test [1] was determined as 1 nM; in test [2], 3 nM; in test [3], 763 nM.
On to `N#Cc1cc(-c2ncnc(Nc3ccc(N4CCN(C5COC5)CC4)cc3)n2)ccc1OCCN1CCNC(=O)C1` [Example 608, 5-(4-((4-(4-(oxetan-3-yl)piperazin-1-yl)phenyl)amino)-1,3,5-triazin-2-yl)-2-(2-(3-oxopiperazin-1-yl)ethoxy)benzonitrile], for which the 50% inhibitory concentration (IC50) is not below 1000 nM in test [1], 662 nM in test [2] and not below 1000 nM in test [3].
`Cn1cc(C(O)C(=O)N2CC[C@H](Oc3ccc(-c4ncnc(Nc5ccc(N6CCN(C7COC7)CC6)cc5)n4)cc3C#N)[C@H](F)C2)cn1` (stereo partly drawn) [Example 463, 2-(((3R,4S)-3-fluoro-1-(2-hydroxy-2-(1-methyl-1H-pyrazol-4-yl)acetyl)piperidin-4-yl)oxy)-5-(4-((4-(4-(oxetan-3-yl)piperazin-1-yl)phenyl)amino)-1,3,5-triazin-2-yl)benzonitrile]: the IC50 in test [1] (setting [4]) was 68 nM; in test [2], 30 nM; in test [3], 272 nM.
`COc1cc(Nc2ncnc(-c3ccc(O[C@H]4CCN(C(=O)[C@H](C)O)CC4(F)F)c(C#N)c3)n2)ccc1N1CCN(C2COC2)CC1` [Example 561, 2-(((S)-3,3-difluoro-1-((S)-2-hydroxypropanoyl)piperidin-4-yl)oxy)-5-(4-((3-methoxy-4-(4-(oxetan-3-yl)piperazin-1-yl)phenyl)amino)-1,3,5-triazin-2-yl)benzonitrile]: the 50% inhibitory concentration (IC50) turned out to be 1 nM in test [1] (setting [4]), 2 nM in test [2] and 68 nM in test [3].
On to `N#Cc1cc(-c2ncnc(Nc3ccc(N4CCN(C5COC5)CC4)cc3)n2)ccc1O[C@H]1CCN(C(=O)C2(C#N)CC2)C[C@H]1F` [Example 587, 2-(((3R,4S)-1-(1-cyanocyclopropanecarbonyl)-3-fluoropiperidin-4-yl)oxy)-5-(4-((4-(4-(oxetan-3-yl)piperazin-1-yl)phenyl)amino)-1,3,5-triazin-2-yl)benzonitrile], for which the values for the 50% inhibitory concentration (IC50) in test [1] (setting [4]), in test [2] and in test [3] were 49 nM, 30 nM and 235 nM, respectively.
For `N#Cc1cc(-c2ncnc(Nc3ccc(N4CCN(C5COC5)CC4)cc3)n2)ccc1O[C@H]1CCN(C(=O)N2CC[C@@H](O)C2)C[C@H]1F` [Example 425, 2-(((3R,4S)-3-fluoro-1-((R)-3-hydroxypyrrolidine-1-carbonyl)piperidin-4-yl)oxy)-5-(4-((4-(4-(oxetan-3-yl)piperazin-1-yl)phenyl)amino)-1,3,5-triazin-2-yl)benzonitrile] the same measures were 21 nM, 7 nM and 590 nM.
`N#Cc1cc(-c2ncnc(Nc3ccc(N4CCN(C5COC5)CC4)cc3)n2)ccc1O[C@H]1CCN(C(=O)CCO)CC1(F)F` [Example 161, (S)-2-((3,3-difluoro-1-(3-hydroxypropanoyl)piperidin-4-yl)oxy)-5-(4-((4-(4-(oxetan-3-yl)piperazin-1-yl)phenyl)amino)-1,3,5-triazin-2-yl)benzonitrile]: the values for the IC50 in test [1], in test [2] and in test [3] were 2 nM, 2 nM and 173 nM, respectively.
As to `CN1CC(Oc2ccc(-c3ncnc(Nc4ccc(N5CCN(C6COC6)CC5)cc4)n3)cc2C#N)CCC1=O` (stereo not drawn) [Example 422, 2-((1-methyl-6-oxopiperidin-3-yl)oxy)-5-(4-((4-(4-(oxetan-3-yl)piperazin-1-yl)phenyl)amino)-1,3,5-triazin-2-yl)benzonitrile], the IC50 in test [1] (setting [4]) amounted to 156 nM; in test [2], 65 nM; in test [3] it was 849 nM.
Take `N#Cc1cc(-c2ncnc(Nc3ccc(N4CCN(C5COC5)CC4)cc3)n2)ccc1OCCNC(=O)c1cccnc1` [Example 598, N-(2-(2-cyano-4-(4-((4-(4-(oxetan-3-yl)piperazin-1-yl)phenyl)amino)-1,3,5-triazin-2-yl)phenoxy)ethyl)nicotinamide]: the results for the IC50 in test [1] (setting [4]), in test [2] and in test [3] were 720 nM, 267 nM and 521 nM, respectively.
Regarding `COc1ccc(Nc2ncnc(-c3ccc(OC4CCOCC4)c(C#N)c3)n2)cn1` [Example 77, 5-(4-((6-methoxypyridin-3-yl)amino)-1,3,5-triazin-2-yl)-2-((tetrahydro-2H-pyran-4-yl)oxy)benzonitrile], the figures for the IC50 in test [1], in test [2] and in test [3] were 55 nM, 21 nM and more than 1000 nM, respectively.
For `COC[C@@H](O)C(=O)N1CC[C@H](Oc2ccc(-c3ncnc(Nc4ccc(N5CCN(C6COC6)CC5)cc4)n3)cc2C#N)[C@H](F)C1` [Example 617, 2-(((3R,4S)-3-fluoro-1-((R)-2-hydroxy-3-methoxypropanoyl)piperidin-4-yl)oxy)-5-(4-((4-(4-(oxetan-3-yl)piperazin-1-yl)phenyl)amino)-1,3,5-triazin-2-yl)benzonitrile], in that order: 75 nM, 29 nM and 226 nM.
For `N#Cc1cc(-c2ncnc(Nc3ccc(N4CCN(C5COC5)CC4)cc3)n2)ccc1O[C@H]1CCOC[C@H]1F` [Example 297, 2-(((3R,4S)-3-fluorotetrahydro-2H-pyran-4-yl)oxy)-5-(4-((4-(4-(oxetan-3-yl)piperazin-1-yl)phenyl)amino)-1,3,5-triazin-2-yl)benzonitrile] the same measures were 4 nM, 2 nM and 397 nM.
For `COc1cc(Nc2ncnc(-c3ccc(O[C@H]4CCN(C(=O)[C@H](C)O)C[C@H]4F)c(C#N)c3)n2)ccc1N1CCN(C2COC2)CC1` [Example 389, 2-(((3R,4S)-3-fluoro-1-((S)-2-hydroxypropanoyl)piperidin-4-yl)oxy)-5-(4-((3-methoxy-4-(4-(oxetan-3-yl)piperazin-1-yl)phenyl)amino)-1,3,5-triazin-2-yl)benzonitrile] the same measures were 1 nM, 2 nM and 55 nM.
With `C[C@H](O)C(=O)N1CC[C@H](Oc2ccc(-c3ncnc(Nc4ccc(-n5ccnc5)cc4)n3)cc2C#N)[C@H](F)C1` [Example 554, 5-(4-((4-(1H-imidazol-1-yl)phenyl)amino)-1,3,5-triazin-2-yl)-2-(((3R,4S)-3-fluoro-1-((S)-2-hydroxypropanoyl)piperidin-4-yl)oxy)benzonitrile], the IC50 in test [1] (setting [4]) is 4 nM; in test [2], 5 nM; in test [3], not below 1000 nM.
For `COc1cc(Nc2ncnc(-c3ccc(O[C@H]4CCN(C(=O)[C@@H](O)CO)C[C@H]4F)c(C#N)c3)n2)cnc1N1CCN(C2COC2)CC1` [Example 511, 2-(((3R,4S)-1-((S)-2,3-dihydroxypropanoyl)-3-fluoropiperidin-4-yl)oxy)-5-(4-((5-methoxy-6-(4-(oxetan-3-yl)piperazin-1-yl)pyridin-3-yl)amino)-1,3,5-triazin-2-yl)benzonitrile] the same measures were 2 nM, 4 nM and not below 1000 nM.
As for `Cc1cc(Nc2ncnc(-c3ccc(O[C@H]4CCN(C(=O)[C@H](C)O)C[C@H]4F)c(C#N)c3)n2)ccc1C1CCN(C=O)CC1` [Example 493, 2-(((3R,4S)-3-fluoro-1-((S)-2-hydroxypropanoyl)piperidin-4-yl)oxy)-5-(4-((4-(1-formylpiperidin-4-yl)-3-methylphenyl)amino)-1,3,5-triazin-2-yl)benzonitrile], the results for the IC50 in test [1] (setting [4]), in test [2] and in test [3] were 1 nM, 2 nM and 782 nM, respectively.
Take `C[C@@H]1C[C@@H](Oc2ccc(-c3ncnc(Nc4ccc(N5CCN(C6COC6)CC5)cc4)n3)cc2C#N)CCN1C(=O)CO` [Example 168, 2-(((2R,4S)-1-(2-hydroxyacetyl)-2-methylpiperidin-4-yl)oxy)-5-(4-((4-(4-(oxetan-3-yl)piperazin-1-yl)phenyl)amino)-1,3,5-triazin-2-yl)benzonitrile]: the IC50 is 61 nM in test [1], 15 nM in test [2] and 877 nM in test [3].
